Converted amounts (≈) assume the structure as drawn.
Details: buffer; pH 7.4; 200.0 µM

First: O=C(COC(=O)c1cc(F)cc(F)c1)Nc1cccnc1Cl
Second: O=C(COC(=O)C1CCN(S(=O)(=O)c2cccs2)CC1)Nc1ccc(F)cc1Cl
The solubility kinetic of the first is 1.6-fold lower: 10.9 µg/mL (≈ 33.4 µM) for the first, 17.7 µg/mL (≈ 38.4 µM) for the second.

Going from `CN(C(=O)COC(=O)c1cncc(Br)c1)C1CCCCC1` to `Cc1cc2c(SCC(=O)NC3CCCCC3)ncnc2s1`, the solubility kinetic falls from > 53.3 µg/mL to 4.4 µg/mL (≈ 13.7 µM).

`O=C(N/C(=C/c1cccnc1)C(=O)N1CCOCC1)c1ccccc1Cl` and `O=C(NCC(=O)N1CCOCC1)OCc1ccccc1` cannot be ordered by solubility kinetic: > 55.8 µg/mL for the first, > 41.7 µg/mL for the second.

First: CN(C(=O)CSc1nc2ccccc2c(=O)n1C)C1CCS(=O)(=O)C1 (centres undefined)
Second: O=C(NC1CCCC1)c1cc2c(=O)n3ccccc3nc2s1
The solubility kinetic of the first is higher: > 57.2 µg/mL for the first, 11.2 µg/mL (≈ 35.7 µM) for the second.

First: COc1ccc(C(=O)N2CCc3c([nH]c4ccccc34)C2C(F)(F)F)cc1 (centres undefined)
Second: COc1ccc(CNC(=O)CCc2c[nH]c3ccccc23)cc1
The solubility kinetic of the first is 22-fold lower: 1.1 µg/mL (≈ 2.94 µM) for the first, 24.6 µg/mL (≈ 79.8 µM) for the second.

First: COC(=O)CSc1nc2cc3c(cc2cc1C)OCO3
Second: COc1ccc(Nc2cc(C)c3c(O)cccc3n2)cc1
The solubility kinetic of the first is 13-fold lower: 1.7 µg/mL (≈ 5.84 µM) for the first, 22.1 µg/mL (≈ 78.8 µM) for the second.

`CNC(=O)c1cc(C(=O)c2ccc(Cl)cc2)c[nH]1` and `O=C(Nc1ccc2c(c1)CCC2)c1ccc(Cl)nc1` are within 1.5-fold of each other in solubility kinetic: 10.5 µg/mL (≈ 40 µM) for the first, 7.8 µg/mL (≈ 28.6 µM) for the second.

`C=CCNC(=O)CN1CCC(c2nc3cc(C)c(C)cc3[nH]2)CC1` and `C=CCNC(=S)N1CCC(C(=O)c2ccc(C)cc2)CC1` cannot be ordered by solubility kinetic: > 49 µg/mL for the first, > 45.4 µg/mL for the second.

First: COc1ccc(CCC(C)NCC(C)c2ccccc2)cc1 (centres undefined)
Second: COc1cccc(OC)c1C(=O)NC(C)CCc1ccccc1 (centres undefined)
The solubility kinetic of the first is higher: > 44.6 µg/mL for the first, 44.2 µg/mL (≈ 141 µM) for the second.

First: CC1(C)C(C#N)=C(N)Oc2c1c(=O)oc1ccccc21
Second: N#Cc1c(CSCC(=O)O)cc(=O)n2c1[nH]c1ccccc12
The solubility kinetic of the first is 43-fold lower: 1.1 µg/mL (≈ 4.1 µM) for the first, 46.9 µg/mL (≈ 150 µM) for the second.

First: COc1ccc(OC)c(/C=C/C(=O)OCC(=O)N2C(C)CCCC2C)c1 (centres undefined)
Second: COc1cccc(/C=C/C(=O)OCC(=O)NCCC2=CCCCC2)c1OC
The solubility kinetic of the first is 6.4-fold higher: 44.1 µg/mL (≈ 122 µM) for the first, 6.9 µg/mL (≈ 18.5 µM) for the second.

Compared with `C[n+]1cccc(/C=N/Nc2nc(Cl)c(C#N)c(Cl)c2Cl)c1.[Cl-]`, `COc1ccc2cc(/C=N/O)c(Cl)nc2c1` is lower in solubility kinetic: > 56.6 µg/mL for the first, 0.9 µg/mL (≈ 3.8 µM) for the second.

Going from `CC(C)[C@H](NC(=O)c1ccccc1)C(=O)OCC(=O)Nc1ccc(S(=O)(=O)N2CCOCC2)cc1` to `CC1CC1C(=O)OCC(=O)NC(=O)c1ccccc1` (centres undefined), the solubility kinetic rises from 3 µg/mL (≈ 5.96 µM) to > 39.2 µg/mL.

`Cc1cccc(NCc2ccc(N(C)C)cc2)n1` and `Cc1cccc(/N=C/c2ccccn2)n1` are within 1.5-fold of each other in solubility kinetic: 27.8 µg/mL (≈ 115 µM) for the first, 27.5 µg/mL (≈ 139 µM) for the second.

`CN1CCN(C(=S)NC(=O)c2ccc(Br)cc2)CC1` and `COc1cccc(N2CCN(C(=O)/C=C/c3ccco3)CC2)c1` are within 1.5-fold of each other in solubility kinetic: 51 µg/mL (≈ 149 µM) for the first, 44.6 µg/mL (≈ 143 µM) for the second.

First: CCC(C)c1ccccc1NC(=O)c1[nH]c(C)c(C(C)=O)c1C (centres undefined)
Second: COc1ccccc1NC(=O)/C=C1\NC(=O)CS1
The solubility kinetic of the first is lower: 2 µg/mL (≈ 6.4 µM) for the first, > 39.6 µg/mL for the second.

Compared with `O=C(NCCC(=O)N1CCc2ccccc21)c1ccco1`, `Cc1ccc(NC(=O)CNC(=O)Cc2cccc3ccccc23)nc1` is lower in solubility kinetic: > 42.6 µg/mL for the first, 11.6 µg/mL (≈ 34.8 µM) for the second.

`Cc1nnc(N)s1` and `CCc1cc(C(=O)Nc2ncccc2O)sc1C` cannot be ordered by solubility kinetic: > 17.3 µg/mL for the first, > 39.3 µg/mL for the second.

First: OCCCc1nc2ccccc2n1CCCCOc1ccccc1
Second: Cc1ccccc1CSc1ncnc2ccccc12
The solubility kinetic of the first is 150-fold higher: 44.6 µg/mL (≈ 137 µM) for the first, 0.3 µg/mL (≈ 1.13 µM) for the second.

Going from `COc1ccc(-n2cc(-c3ccccc3)c3c(=S)nc[nH]c32)cc1` to `COc1ccc(S(=O)(=O)Nc2ccc(Cl)cn2)cc1`, the solubility kinetic rises from 0.6 µg/mL (≈ 1.8 µM) to 14.4 µg/mL (≈ 48.2 µM) (24-fold).

Going from `COc1cccc(OC)c1C(=O)N1CCNCC1.O=C(O)C(=O)O` to `COc1ccc(/C=C/C(=O)O)cc1S(=O)(=O)N1CCC(C)CC1`, the solubility kinetic rises from 49.7 µg/mL to > 50.9 µg/mL.

First: COc1cc(OC)cc(C(=O)N[C@H](C(=O)NCc2ccco2)C(C)C)c1
Second: Cc1ccc(-c2noc(COC(=O)c3ccco3)n2)cc1
The solubility kinetic of the first is 5.1-fold higher: 45.3 µg/mL (≈ 126 µM) for the first, 8.8 µg/mL (≈ 31 µM) for the second.

Going from `N#Cc1ccccc1NC(=S)NC(=O)c1cccs1` to `O=C(Nc1cccnc1)c1ccc(CSc2ccccc2)cc1`, the solubility kinetic falls from 30.7 µg/mL (≈ 107 µM) to < 0.3 µg/mL.

Compared with `O=C(CN1C(=O)NC2(CCCCCC2)C1=O)Nc1ccc([N+](=O)[O-])cc1`, `O=[N+]([O-])c1ccc(C2NS(=O)(=O)N=C3CCCCCN32)cc1` (centres undefined) is higher in solubility kinetic: 13.3 µg/mL (≈ 36.9 µM) for the first, > 48.7 µg/mL for the second.

`O=C1CCc2cc(S(=O)(=O)Nc3ccccc3)ccc2N1` and `COc1ccccc1N1CCN(C(=O)c2cccc(S(=O)(=O)Nc3ccccc3F)c2)CC1.Cl` cannot be ordered by solubility kinetic: > 45.4 µg/mL for the first, > 75.9 µg/mL for the second.

`CCCC(=O)Nc1ccc(-c2cn3cccnc3n2)cc1` and `N#Cc1c(C(F)(F)F)cc(-c2ccc(F)cc2)nc1SCC(=O)O` cannot be ordered by solubility kinetic: > 42 µg/mL for the first, 51.2 µg/mL (≈ 144 µM) for the second.

Compared with `CN1CCCC(C(O)(c2ccccc2)c2ccccc2)C1` (centres undefined), `O=C(CCC1CCN(Cc2ccccc2Cl)CC1)NC1CC1` is higher in solubility kinetic: 40.8 µg/mL (≈ 145 µM) for the first, > 48.1 µg/mL for the second.

`CCOc1ccccc1/C=C(\C#N)C1=CCCC1` and `CCOc1ccc(Cc2onc3c2C(=O)CCC3)cc1OCC` cannot be ordered by solubility kinetic: > 35.9 µg/mL for the first, 45.4 µg/mL (≈ 144 µM) for the second.

Compared with `CNc1c(-n2cc(C(=O)OC)c(C(=O)OC)c2C(=O)OC)c(=O)n(C)c(=O)n1C`, `O=C(CSCc1ccc(Cl)cc1Cl)Nc1ccc(O)cc1C(=O)O` is higher in solubility kinetic: 56.7 µg/mL (≈ 139 µM) for the first, > 57.9 µg/mL for the second.

`N#Cc1ccc(OS(=O)(=O)c2ccc(-c3ccon3)s2)cc1` showed a solubility kinetic of 11.8 µg/mL (≈ 35.5 µM).
